From patent publication US20060276525A1, “Processes of preparing highly pure telmisartan form A, suitable for pharmaceutical compositions” (priority 2005, published 2006)
Like-named read-outs stand apart in the source and are kept apart here.

Key:
Type in all cases: physicochemical
[1] = Average particle size measurement (Malvern Mastersizer 2000, particle size distribution); details: for Particle size distribution D(v,0.1) / Particle size distribution D(v,0.2) / Particle size distribution D(v,0.8) / Particle size distribution D(v,0.95) / Particle size distribution D(v,0.98) / Particle size distribution D(v,1.0) / Particle size distribution D(v,0.5) / Particle size distribution D(v,0.9): carrier liquid water; for Particle size distribution D(v,0.5): size for 50% of the particles; for Particle size distribution D(v,0.9): size for 90% of the particles; for D(V, 0.9): in µm (unit assumed)
Protocol: Average Particle Size Measurement: Particle size was measured by Malvern model Mastersizer 2000, equipped with Malvern Hydro G circulation cell. Carrier: liquid:water. System description: Measuring range: from 0.02-2000 μm. Accuracy: 1% on the Dv50 Light sources: Red light-helium neon laser. Blue light-solid state light source.

[2] = Bulk density (tapped density tester VanKel 50-2300)
Protocol: Bulk Density: Bulk density was measured using tapped density tester dual-platform model VanKel 50-2300 (Varian Inc.). System specifications. Speed: nominal rate of 300 taps per minute, Accuracy: Actual setting±1 tap, Drop height: 14±2 mm. Platform rotation: 5-15 rotations/minute.

[3] = Flowability / electrostatic charging of the ground material; details: ground by conventional mill
[4] = listed as Telmisartan form A, obtained by crystallization from water
[5] = Sonicated material with no milling
[6] = listed as Telmisartan form A, obtained by crystallization from DMSO

Particle size distribution D(v,0.1) [1] [μ]	Particle size distribution D(v,0.2) [1] [μ]	Particle size distribution D(v,0.8) [1] [μ]	Particle size distribution D(v,0.95) [1] [μ]	Particle size distribution D(v,0.98) [1] [μ]	Particle size distribution D(v,1.0) [1] [μ]	Particle size distribution D(v,0.5) [1] [μ]	Particle size distribution D(v,0.9) [1] [μ]	Compound	further results
1.08	1.45	6.04	12.07	16.13	33.57	2.83	8.97	CCCc1nc2c(C)cc(-c3nc4ccccc4n3C)cc2n1Cc1ccc(-c2ccccc2C(=O)O)cc1 [Example 4, Telmisartan]	Particle size distribution D(v,0.5) ([1]; listed as Telmisartan form A, obtained by crystallization from DMF): less than 3 μ
0.35	0.85	11.90	23.03	30.08	52.871	4.33	17.48	CCCc1nc2c(C)cc(-c3nc4ccccc4n3C)cc2n1Cc1ccc(-c2ccccc2C(=O)O)cc1 [Example 2, Telmisartan]	Bulk density [2, 4]: about 0.22 g/ml; Particle size distribution D(v,0.5) [1, 4]: about 4.3 μ; Particle size distribution D(v,0.9) [1, 4]: about 17.5 μ
								CCCc1nc2c(C)cc(-c3nc4ccccc4n3C)cc2n1Cc1ccc(-c2ccccc2C(=O)O)cc1 [Example 7, Telmisartan]	D(V, 0.1) ([1]; Ground material): 0.7 µm; D(V, 0.5) ([1]; Ground material): 3.3 µm; D(V, 0.9) ([1]; Ground material): 19.1; D(V, 0.1) [1, 5]: 0.8 µm; D(V, 0.5) [1, 5]: 8.1 µm; D(V, 0.9) [1, 5]: 24.7; D(V, 0.1) ([1]; Un-milled material): 51.4 µm; D(V, 0.5) ([1]; Un-milled material): 245 µm; D(V, 0.9) ([1]; Un-milled material): 578.2
1.60	2.25	11.46	22.21	29.03	52.87	4.98	16.78	CCCc1nc2c(C)cc(-c3nc4ccccc4n3C)cc2n1Cc1ccc(-c2ccccc2C(=O)O)cc1 [Example 1, Telmisartan]	Bulk density [2]: about 0.3 g/ml; Bulk density [2, 6]: about 0.3 g/ml; Particle size distribution D(v,0.5) [1, 6]: about 5 μ; Particle size distribution D(v,0.9) [1, 6]: about 17 μ; Flowability of ground material [3]: free flowing crystalline powder that does not tend to gain electrostatic charge upon grinding
